Test results taken from paper PMC4425367 (Journal of medicinal chemistry, 2015).
Entries after “also recorded” stand apart in the source; their conditions may differ.

Assays:
hCB2 receptor = hCB2 receptor (Homo sapiens, UniProt P34972); test: cAMP assay, forskolin-stimulated cAMP in HEK293 cells expressing hCB2; format: cell-based; details: for classification hCB2: cAMP functional test
rCB1 receptor = rCB1 receptor (Rattus norvegicus, UniProt P20272); test: cAMP assay, forskolin-stimulated cAMP in HEK293 cells expressing rCB1; format: cell-based; details: cAMP functional test
CB1 receptor = CB1 receptor (Rattus norvegicus, UniProt P20272); format: binding; details: 10Ki concentration, incubation extended to 60 min, compared with 30 min
Sequence of CB1 receptor (P20272 whole entry): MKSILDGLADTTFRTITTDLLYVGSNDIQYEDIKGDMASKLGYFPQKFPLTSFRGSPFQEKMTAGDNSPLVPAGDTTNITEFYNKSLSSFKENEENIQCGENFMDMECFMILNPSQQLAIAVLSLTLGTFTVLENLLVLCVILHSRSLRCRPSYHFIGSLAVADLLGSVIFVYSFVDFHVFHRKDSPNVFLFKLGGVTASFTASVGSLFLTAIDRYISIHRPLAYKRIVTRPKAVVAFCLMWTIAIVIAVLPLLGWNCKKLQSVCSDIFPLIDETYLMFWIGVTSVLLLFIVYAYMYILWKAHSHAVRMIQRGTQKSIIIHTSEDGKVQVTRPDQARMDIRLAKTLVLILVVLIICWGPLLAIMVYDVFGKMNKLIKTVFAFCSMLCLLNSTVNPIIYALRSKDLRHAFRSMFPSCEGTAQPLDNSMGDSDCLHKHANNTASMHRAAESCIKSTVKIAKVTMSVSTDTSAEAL

Sequence of rCB1 receptor (P20272 whole entry): as above
Sequence of hCB2 receptor (P34972 whole entry): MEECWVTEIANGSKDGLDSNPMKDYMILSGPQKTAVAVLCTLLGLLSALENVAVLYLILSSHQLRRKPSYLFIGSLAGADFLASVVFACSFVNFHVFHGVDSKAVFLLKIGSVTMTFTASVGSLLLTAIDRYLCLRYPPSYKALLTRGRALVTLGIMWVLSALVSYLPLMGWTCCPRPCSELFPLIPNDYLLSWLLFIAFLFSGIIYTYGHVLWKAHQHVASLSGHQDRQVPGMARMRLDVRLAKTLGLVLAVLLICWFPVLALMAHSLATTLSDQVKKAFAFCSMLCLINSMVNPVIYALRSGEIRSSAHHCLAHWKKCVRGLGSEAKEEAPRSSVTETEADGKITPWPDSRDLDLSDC

For `CCCCCCC(C)(C)c1ccc([C@@H]2C[C@H](O)CC[C@H]2CCCO)c(O)c1` [CP-55,940, reference compound], the “classification hCB2” value (hCB2 receptor) was “full agonist; also recorded: potent agonist”.
`CC1(C)Oc2cc([C@]34CC5CC(C[C@@](CN=C=S)(C5)C3)C4)cc(O)c2[C@@H]2C[C@H](O)CC[C@H]21` [Compound 16, (6aR,9R,10aR)-3-[(1r,3R)-3-(Isothiocyanatomethyl)-adamantan-1-yl]-6,6-dimethyl-6a,7,8,9,10,10a-hexahydro-6H-benzo[c]chromene-1,9-diol] was tested, and the “classification hCB2” value (hCB2 receptor) was “inverse agonist” and the “classification rCB1” value (rCB1 receptor) was “potent agonists; also recorded: agonist”.
`CC1(C)Oc2cc([C@]34CC5CC(C[C@@](CN=[N+]=[N-])(C5)C3)C4)cc(O)c2[C@@H]2C[C@H](O)CC[C@H]21` [Compound 17, (6aR,9R,10aR)-3-[(1r,3R)-3-(Azidomethyl)adamantan-1-yl]-6,6-dimethyl-6a,7,8,9,10,10a-hexahydro-6H-benzo[c]-chromene-1,9-diol] was tested, and the “response of forskolin-stimulated cAMP accumulation, hCB2” value (hCB2 receptor; HEK293 cells expressing hCB2, up to a 3 μM concentration) was “no response”, the “classification hCB2” value (hCB2 receptor) was “neutral antagonists” and the “classification rCB1” value (rCB1 receptor) was “agonist”.
With `CC1(C)Oc2cc([C@]34CC5CC(C[C@@](N=C=S)(C5)C3)C4)cc(O)c2[C@@H]2C[C@H](O)CC[C@H]21` [Compound 19, (6aR,9R,10aR)-3-[(1r,3R)-3-Isothiocyanatoadamantan-1-yl]-6,6-dimethyl-6a,7,8,9,10,10a-hexahydro-6H-benzo[c]-chromene-1,9-diol] the “classification hCB2” value (hCB2 receptor) was “neutral antagonists”, the “classification rCB1” value (rCB1 receptor) was “potent agonists; also recorded: agonist” and the “CB1 covalent binding, 60 min incubation” value (CB1 receptor) was “no further increase”.
For `CC1(C)Oc2cc([C@]34CC5CC(C[C@@](N=[N+]=[N-])(C5)C3)C4)cc(O)c2[C@@H]2C[C@H](O)CC[C@H]21` [Compound 20, (6aR,9R,10aR)-3-[(1r,3R)-3-Azidoadamantan-1-yl]-6,6-di-methyl-6a,7,8,9,10,10a-hexahydro-6H-benzo[c]chromene-1,9-diol], the “classification hCB2” value (hCB2 receptor) was “neutral antagonists” and the “classification rCB1” value (rCB1 receptor) was “potent agonists; also recorded: agonist”.
`CC1(C)Oc2cc([C@]34CC5CC(C[C@@](CC#N)(C5)C3)C4)cc(O)c2[C@@H]2C[C@H](O)CC[C@H]21` [Compound 23, 2-{(1R,3r)-3-[(6aR,9R,10aR)-1,9-Dihydroxy-6,6-dimethyl-6a,7,8,9,10,10a-hexahydro-6H-benzo[c]chromen-3-yl]-adamantan-1-yl}acetonitrile] was tested, and the “classification hCB2” value (hCB2 receptor) was “inverse agonist” and the “classification rCB1” value (rCB1 receptor) was “potent agonists; also recorded: agonist”.
For `CC1(C)Oc2cc([C@]34CC5CC(C[C@@](C#N)(C5)C3)C4)cc(O)c2[C@@H]2C[C@H](O)CC[C@H]21` [Compound 25, (1R,3r)-3-[(6aR,9R,10aR)-1,9-Dihydroxy-6,6-dimethyl-6a,7,8,9,10,10a-hexahydro-6H-benzo[c]chromen-3-yl]-adamantane-1-carbonitrile], the “classification hCB2” value (hCB2 receptor) was “inverse agonist” and the “classification rCB1” value (rCB1 receptor) was “agonist”.
`COC(=O)N[C@]12CC3CC(C1)C[C@](c1cc(O)c4c(c1)OC(C)(C)[C@@H]1CC[C@@H](O)C[C@@H]41)(C3)C2` [Compound 26, Methyl {(1R,3r)-3-[(6aR,9R,10aR)-1,9-Dihydroxy-6,6-dimethyl-6a,7,8,9,10,10a-hexahydro-6H-benzo[c]chromen-3-yl]-adamantan-1-yl}carbamate] was tested, and the “classification hCB2” value (hCB2 receptor) was “inverse agonist” and the “classification rCB1” value (rCB1 receptor) was “agonist”.
With `CC1(C)Oc2cc(C34CC5CC(CC(C5)C3)C4)cc(O)c2[C@@H]2C[C@H](O)CC[C@H]21` [Compound 27, reference compound] the “classification rCB1” value (rCB1 receptor) was “agonist”.
